Data published in patent publication US20240116973A1, “MODIFIED OLIGONUCLEOTIDES” (ALNYLAM PHARMACEUTICALS, INC., priority 2021, published 2024).

Tests used:
[1] = test system: adenosine deaminase; assay: Adenosine deaminase assay in human liver S9 fractions; type: in vitro ADME; settings: 1 μM nucleoside, 1 mg/mL human liver S9, pH 7.4, with/without 1 mM NADPH, up to 2 hours, LC-MS
From the text: In the adenosine deaminase assays, 2′-fluoroadenosie was used as a positive control for the deaminase activity: […]

[2] = biological target: T1, human mitochondrial RNA polymerase POLRMT (Homo sapiens, UniProt O00411); assay: POLRMT primer extension (polymerase incorporation) assay; type: biochemical; settings: single NTP 100 μM or 1 mM, 37° C., 30 min, IEX-HPLC fluorescence
T1 construct: purchased Indigo Biosciences MV100-40
From the text: Purified exonuclease activity-deficient human mitochondrial DNA polymerase POLG was obtained from the lab of Prof. William Copeland (National Institute of Environmental Health Science, Durham, NC, USA). Human mitochondrial POLRMT was purchased from Indigo Biosciences (Cat #MV100-40). Atto-425-labelled DNA and RNA primers were synthesized in house; DNA templates were obtained from IDT.
The assays are designed for single NT addition on appropriate template/primer sets: • Atto-425 labeled primers allow for high sensitivity fluorescence detection with very low reaction volumes • Analytical IEX-HPLC with fluorescence detection for optimal resolution of primer-extended products—especially important in competition mixtures • Assays can be applied for the assessment of incorporation efficiency of novel chemistries.
Reaction conditions for the POLG incorporation assays were as follows: 100 nM DNA template, 100 nM 5′-Atto-425-labelled DNA primer, 40 units POLG, 100 μM or 1 mM NTP substrate in 20 mM Tris-HCl, pH 8.0, 2 mM β-mercaptoethanol, 0.1 mg/mL bovine serum albumin, 10 mM MgCl2. Reactions were incubated at 37° C. for 30 min. Reactions were quenched by heating the reaction mixture to 85° C. for 5 min. The reaction mixtures were diluted with water to a final primer concentration of approximately 2.5 nM and analysed by IEX-HPLC with an attached fluorescence detector (excitation wavelength: 436 nm, emission wavelength: 485 nm) and a Dionex BioLCDNAPac PA200 4×250 mm (8 μm particle size) column. […] The reaction mixtures were diluted with water to a final primer concentration of approximately 2.5 nM and analysed by IEX-HPLC as described above, except that the gradient was 35% to 40% buffer B in 16 min.
Recognition of 2′F—N6MeA NTPs by POLRMT and PolGamma: Incorporation of 2′F—N6MeA, RNA, and 2′-F-RNA NTP monomers were evaluated in a previously reported in vitro primer extension assays catalyzed by the human mitochondrial RNA polymerase POLRMT and human mitochondrial DNA polymerase PolGamma. […]

[3] = biological target: T2, human mitochondrial DNA polymerase POLG (Homo sapiens, UniProt P54098, D198A/E200A); assay: POLG (Pol-γ) primer extension (polymerase incorporation) assay; type: biochemical; settings: single NTP 100 μM or 1 mM, 37° C., 30 min, IEX-HPLC fluorescence
T2 construct: lab of Prof; William Copeland (National Institute of Environmental Health Science, Durham, NC, USA)
T2 sequence (P54098 26-1239 D198A/E200A limits assumed): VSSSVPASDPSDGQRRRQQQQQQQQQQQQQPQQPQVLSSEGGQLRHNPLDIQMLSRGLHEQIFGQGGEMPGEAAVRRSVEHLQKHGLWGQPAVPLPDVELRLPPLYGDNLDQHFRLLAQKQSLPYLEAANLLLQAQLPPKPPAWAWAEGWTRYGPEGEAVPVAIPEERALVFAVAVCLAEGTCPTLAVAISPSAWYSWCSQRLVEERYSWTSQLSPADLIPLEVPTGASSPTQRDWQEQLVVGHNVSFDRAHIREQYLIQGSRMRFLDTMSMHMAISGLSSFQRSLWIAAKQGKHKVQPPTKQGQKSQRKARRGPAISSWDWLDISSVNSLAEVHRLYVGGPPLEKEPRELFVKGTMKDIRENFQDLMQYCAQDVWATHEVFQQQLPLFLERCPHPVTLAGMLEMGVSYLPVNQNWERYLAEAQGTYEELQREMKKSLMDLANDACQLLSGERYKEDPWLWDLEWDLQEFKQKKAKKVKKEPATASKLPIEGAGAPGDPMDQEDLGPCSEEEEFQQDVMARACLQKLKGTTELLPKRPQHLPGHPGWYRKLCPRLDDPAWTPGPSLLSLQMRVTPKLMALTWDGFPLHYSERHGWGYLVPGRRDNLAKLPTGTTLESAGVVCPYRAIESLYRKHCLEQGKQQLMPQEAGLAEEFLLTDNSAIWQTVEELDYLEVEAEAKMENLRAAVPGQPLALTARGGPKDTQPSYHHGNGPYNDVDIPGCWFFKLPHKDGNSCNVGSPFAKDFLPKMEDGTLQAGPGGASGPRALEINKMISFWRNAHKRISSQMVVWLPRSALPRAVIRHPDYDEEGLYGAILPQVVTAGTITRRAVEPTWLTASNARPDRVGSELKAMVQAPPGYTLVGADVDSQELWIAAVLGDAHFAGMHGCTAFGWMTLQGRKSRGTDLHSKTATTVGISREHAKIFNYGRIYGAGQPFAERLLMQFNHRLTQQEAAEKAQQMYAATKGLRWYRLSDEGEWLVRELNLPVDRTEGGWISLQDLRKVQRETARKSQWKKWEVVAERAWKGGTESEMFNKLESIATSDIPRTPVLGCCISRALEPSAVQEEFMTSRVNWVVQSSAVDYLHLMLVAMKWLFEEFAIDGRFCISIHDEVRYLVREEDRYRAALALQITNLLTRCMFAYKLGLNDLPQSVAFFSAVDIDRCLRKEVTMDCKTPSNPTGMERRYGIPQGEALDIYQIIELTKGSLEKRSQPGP
Method: Purified exonuclease activity-deficient human mitochondrial DNA polymerase POLG was obtained from the lab of Prof. William Copeland (National Institute of Environmental Health Science, Durham, NC, USA). Human mitochondrial POLRMT was purchased from Indigo Biosciences (Cat #MV100-40).
Buffer A was 20 mM sodium phosphate, 15% ACN, pH 11; and buffer B was 20 mM sodium phosphate, 15% ACN, 1 M NaBr, pH 11. […] Briefly, a 5′-fluorescently labeled primer and template were incubated […], and the primer extension reaction was monitored via fluorescence detection ion-exchange high-performance liquid chromatography.

T1 sequence (O00411 42-1230): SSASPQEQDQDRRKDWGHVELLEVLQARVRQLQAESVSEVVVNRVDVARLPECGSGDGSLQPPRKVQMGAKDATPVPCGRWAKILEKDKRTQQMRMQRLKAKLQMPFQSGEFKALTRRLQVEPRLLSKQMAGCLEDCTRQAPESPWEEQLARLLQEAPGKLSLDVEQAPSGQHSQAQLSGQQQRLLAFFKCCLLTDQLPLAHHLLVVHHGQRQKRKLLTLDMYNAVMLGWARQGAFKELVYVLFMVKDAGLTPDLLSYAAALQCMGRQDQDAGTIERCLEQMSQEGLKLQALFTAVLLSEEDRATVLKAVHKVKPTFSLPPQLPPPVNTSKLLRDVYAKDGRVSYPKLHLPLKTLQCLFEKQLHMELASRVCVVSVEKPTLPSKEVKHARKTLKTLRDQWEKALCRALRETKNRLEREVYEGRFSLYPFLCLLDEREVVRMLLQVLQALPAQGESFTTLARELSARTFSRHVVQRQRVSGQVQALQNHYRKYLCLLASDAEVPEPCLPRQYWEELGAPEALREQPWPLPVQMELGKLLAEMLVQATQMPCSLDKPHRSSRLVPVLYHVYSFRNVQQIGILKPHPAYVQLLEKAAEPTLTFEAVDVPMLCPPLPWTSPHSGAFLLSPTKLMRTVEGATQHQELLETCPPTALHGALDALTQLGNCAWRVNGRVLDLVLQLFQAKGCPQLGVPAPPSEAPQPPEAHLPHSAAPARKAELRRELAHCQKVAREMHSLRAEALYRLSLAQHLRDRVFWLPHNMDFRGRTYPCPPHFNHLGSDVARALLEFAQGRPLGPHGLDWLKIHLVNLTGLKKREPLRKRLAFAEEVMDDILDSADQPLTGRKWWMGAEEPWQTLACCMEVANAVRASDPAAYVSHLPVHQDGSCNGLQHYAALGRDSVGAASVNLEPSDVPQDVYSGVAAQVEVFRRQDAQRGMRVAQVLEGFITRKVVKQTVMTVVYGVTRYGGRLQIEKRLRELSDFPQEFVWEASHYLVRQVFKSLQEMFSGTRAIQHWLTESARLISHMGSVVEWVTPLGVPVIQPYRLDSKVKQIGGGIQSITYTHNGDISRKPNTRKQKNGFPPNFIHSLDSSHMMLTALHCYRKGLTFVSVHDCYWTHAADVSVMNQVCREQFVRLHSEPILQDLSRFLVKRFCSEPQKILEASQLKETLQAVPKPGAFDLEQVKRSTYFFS

SMILES	Deaminated metabolite (adenine to inosine conversion) [1]	PolRMT Incorporation [2]	PolRMT Incorporation ([2]; listed as 2′F—N6MeA NTP)	Pol-γ Incorporation [3]	Pol-γ Incorporation ([3]; listed as 2′F—N6MeA NTP)
Nc1ncnc2c1ncn2[C@@H]1O[C@H](CO)[C@H](O)C1F (stereo partly shown) [2′-fluoro-adenosine, reference compound]	formation of deaminated metabolite	–	–	–	–
CNc1ncnc2c1ncn2[C@@H]1O[C@H](COP(=O)(O)OP(=O)(O)OP(=O)(O)O)[C@@H](O)[C@H]1F [2′Fluoro-N6Methyl-Atp triphosphate, ((2R,3R,4R,5R)-4-fluoro-3-hydroxy-5-(6-(methylamino)-9H-purin-9-yl)tetrahydrofuran-2-yl)methyl triphosphate]	–	Yes	good substrate	Yes	good substrate
COC1C(O)[C@@H](CO)O[C@H]1n1cnc2c(NC(C)C)ncnc21 (stereo partly drawn) [Compound 45, (2R,5R)-2-(hydroxymethyl)-5-[6-(isopropylamino)purin-9-yl]-4-methoxy-tetrahydrofuran-3-ol]	no deaminated metabolites were observed	–	–	–	–
Nc1ncnc2c1ncn2[C@@H]1O[C@H](COP(=O)(O)OP(=O)(O)OP(=O)(O)O)[C@@H](O)[C@H]1O [rATP, reference compound]	–	efficiently incorporated	–	–	–
